Measurements published in patent US11077090B2, “Compounds and compositions and uses thereof” (Sunovion Pharmaceuticals Inc., priority 2016, dated 2021).
Where two headings read alike, the source gives them in different places.

Tested on: compound-treated mice
Assay: Neuropharmacological assay (SmartCube): behavioral activity signature and minimal effective dose
Format: in vivo
Conditions: for minimal effective dose: Mus musculus, ip, MED = dose having 50% or more total activity; for AD: ADHD (probability of activity signature) / AG: analgesic (probability of activity signature) / AX: anxiolytic (probability of activity signature) / CE: cognitive enhancer (probability of activity signature) / DP: anti-depressant (probability of activity signature) / MS: mood stabilizer (probability of activity signature) / PS: anti-psychotic (probability of activity signature) / SD: sedative hypnotic (probability of activity signature) / UN: uncharacterized CNS activity (probability of activity signature): i.p. 15 min before test, most efficacious dose(s)
Description: Neurosci. 2011 Sep. 9; 5:103 (doi: 10.3389/fnins.2011.00103) (“Roberds”). As reported in Roberds, because psychiatric diseases generally result from disorders of cell-cell communication or circuitry, intact systems are useful in detecting improvement in disease-relevant endpoints. These endpoints are typically behavioral in nature, often requiring human observation and interpretation. To facilitate testing of multiple compounds for behavioral effects relevant to psychiatric disease, PsychoGenics, Inc. (Tarrytown, N.Y., “PGI”) developed SmartCube™, an automated system in which behaviors of compound-treated mice are captured by digital video and analyzed with computer algorithms. (D. Brunner et al., Drug Discov. Today 2002, 7:S107-S112). PGI Analytical Systems uses data from SmartCube™ to compare the behavioral signature of a test compound to a database of behavioral signatures obtained using a large set of diverse reference compounds. (The composition of the database as well as validation of the method is further described in Roberds). In this way, the neuropharmacological effects of a test compound can be predicted by similarity to major classes of compounds, such as antipsychotics, anxiolytics and antidepressants.
The SmartCube™ system produces an activity signature indicating the probability that the activity of the test compound at the administered dose matches a given class of neuropharmacological agents. (See, e.g., Roberds, FIGS. 2 and 3). The test compound is simultaneously compared against multiple classes of agents; thus, a separate probability is generated for each behavioral effect measured (e.g., anxiolytic activity, analgesic activity, etc.). In the table below, these probabilities are reported for each behavioral effect measured as follows:
where LOQ is the limit of quantification.
Provided compounds were dissolved in a mixture of Pharmasolve™ (N-methyl-2-pyrrolidone), polyethylene glycol and propylene glycol, and were injected i.p. 15 min. before the behavioral test. For each compound, injections were administered at 3 different doses. For each behavioral effect measured, results for the most efficacious dose(s) are presented. In the table below, DP: anti-depressant; AX: anxiolytic; SD: sedative hypnotic; PS: anti-psychotic; MS: mood stabilizer; AD: ADHD; CE: cognitive enhancer; AG: analgesic; UN: uncharacterized CNS activity.
The potency of many of the compounds in the table was also determined in the SmartCube™ system. Test compounds were routinely examined at dose levels of 0.3, 1, 3, 10 and 30 mg per kg (mpk), although the dose range was increased or decreased if necessary to obtain a full dose response curve. A compound's minimal effective dose (MED) is a measure of the compounds potency. The MED was defined as the dose (in mpk) having 50% or more total activity in SmartCube.

[1] = read-out: Potency: minimal effective dose (MED)

| SMILES | minimal effective dose [1] [mg/kg] | AD: ADHD (probability of activity signature) | AG: analgesic (probability of activity signature) | AX: anxiolytic (probability of activity signature) | CE: cognitive enhancer (probability of activity signature) | DP: anti-depressant (probability of activity signature) | MS: mood stabilizer (probability of activity signature) | PS: anti-psychotic (probability of activity signature) | SD: sedative hypnotic (probability of activity signature) | UN: uncharacterized CNS activity (probability of activity signature) | minimal effective dose (read-out: Potency: minimal effective dose (MED), binned) [mg/kg] |
| --- | --- | --- | --- | --- | --- | --- | --- | --- | --- | --- | --- |
| CCc1cccc2c1C(N)COC2.Cl (stereo not drawn) [Example 53, 5-Ethylisochroman-4-amine hydrochloride] | 3 to 10 | + (LOQ ≤ + <5%) | ++ (5% ≤ ++ <25%) | ++ (5% ≤ ++ <25%) | ++ (5% ≤ ++ <25%) | ++ (5% ≤ ++ <25%) | + (LOQ ≤ + <5%) | ++ (5% ≤ ++ <25%) | ++ (5% ≤ ++ <25%) | ++++ (50% ≤ ++++) |  |
| CCN(C)C(=O)Oc1ccc2c(c1)CO[C@H](C)[C@H]2N(C)C.Cl [Example 286] |  | + (LOQ ≤ + <5%) | + (LOQ ≤ + <5%) | + (LOQ ≤ + <5%) | + (LOQ ≤ + <5%) | ++ (5% ≤ ++ <25%) | ++ (5% ≤ ++ <25%) | + (LOQ ≤ + <5%) | ++ (5% ≤ ++ <25%) | ++ (5% ≤ ++ <25%) | 10 to 30 |
| Cc1ccc2c(c1C)[C@H](N)[C@@H](C)OC2.Cl [Example 79] | 3 to 10 | + (LOQ ≤ + <5%) | ++ (5% ≤ ++ <25%) | +++ (25% ≤ +++ <50%) | ++ (5% ≤ ++ <25%) | ++ (5% ≤ ++ <25%) | + (LOQ ≤ + <5%) | ++ (5% ≤ ++ <25%) | ++ (5% ≤ ++ <25%) | ++ (5% ≤ ++ <25%) |  |
| C[C@H]1OCc2ccc(Cl)c(Cl)c2[C@@H]1N.Cl [Example 92] | 10 to 30 | + (LOQ ≤ + <5%) | + (LOQ ≤ + <5%) | ++ (5% ≤ ++ <25%) | + (LOQ ≤ + <5%) | ++ (5% ≤ ++ <25%) | + (LOQ ≤ + <5%) | + (LOQ ≤ + <5%) | + (LOQ ≤ + <5%) | ++++ (50% ≤ ++++) |  |
| Cc1ccc2c(c1)C(N(C)C)CCOC2.Cl (stereo not drawn) [Example 62] | 3 to 10 | + (LOQ ≤ + <5%) | ++ (5% ≤ ++ <25%) | ++ (5% ≤ ++ <25%) | +++ (25% ≤ +++ <50%) | ++ (5% ≤ ++ <25%) | ++ (5% ≤ ++ <25%) | ++ (5% ≤ ++ <25%) | + (LOQ ≤ + <5%) | ++++ (50% ≤ ++++) |  |
| CC(C)c1cccc2c1COCC2N.Cl (stereo not drawn) [Example 18, 8-Isopropylisochroman-4-amine hydrochloride] | 10 to 30 | + (LOQ ≤ + <5%) | +++ (25% ≤ +++ <50%) | ++ (5% ≤ ++ <25%) | ++ (5% ≤ ++ <25%) | ++ (5% ≤ ++ <25%) | + (LOQ ≤ + <5%) | ++ (5% ≤ ++ <25%) | ++ (5% ≤ ++ <25%) | + (LOQ ≤ + <5%) |  |
